Assay results as given in patent US7994209B2, “3-phenoxymethylpyrrolidine compounds” (Theravance, Inc., priority 2009, dated 2011).

What was measured:
hSERT [1] = molecular target: T1, hSERT (Homo sapiens, UniProt P31645); test: hSERT neurotransmitter uptake assay (3H-5-HT), Assay 2; assay type: cell-based; set-up: expressed in transfected cells; host or cells: HEK-293; settings: serotonin reuptake inhibition, 3H-5-HT uptake, HEK-293 hSERT cells (values without asterisk); read-out: SERT pIC50 (converted)
T1 sequence (P31645 whole entry): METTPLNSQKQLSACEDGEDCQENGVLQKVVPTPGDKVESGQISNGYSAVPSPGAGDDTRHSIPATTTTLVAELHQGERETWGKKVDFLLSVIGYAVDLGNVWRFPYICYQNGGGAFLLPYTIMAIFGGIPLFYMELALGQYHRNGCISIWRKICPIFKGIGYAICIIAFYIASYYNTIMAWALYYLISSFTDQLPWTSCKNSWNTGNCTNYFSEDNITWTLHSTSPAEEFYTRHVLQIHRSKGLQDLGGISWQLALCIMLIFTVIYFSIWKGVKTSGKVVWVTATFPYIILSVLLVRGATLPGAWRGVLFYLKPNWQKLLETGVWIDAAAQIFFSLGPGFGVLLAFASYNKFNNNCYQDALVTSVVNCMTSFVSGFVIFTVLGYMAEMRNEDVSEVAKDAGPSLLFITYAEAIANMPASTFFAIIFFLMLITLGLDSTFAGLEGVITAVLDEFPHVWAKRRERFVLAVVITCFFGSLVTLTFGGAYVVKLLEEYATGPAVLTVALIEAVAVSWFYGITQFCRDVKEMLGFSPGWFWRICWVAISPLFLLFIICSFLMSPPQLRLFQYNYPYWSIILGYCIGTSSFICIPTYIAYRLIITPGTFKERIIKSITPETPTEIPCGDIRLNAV

hNET [2] = molecular target: T2, hNET (Homo sapiens, UniProt P23975); test: hNET neurotransmitter uptake assay (3H-NE), Assay 2; assay type: cell-based; set-up: expressed in transfected cells; host or cells: HEK-293; settings: norepinephrine reuptake inhibition, 3H-NE uptake, HEK-293 hNET cells (values without asterisk); read-out: NET pIC50 (converted)
T2 sequence (P23975 whole entry): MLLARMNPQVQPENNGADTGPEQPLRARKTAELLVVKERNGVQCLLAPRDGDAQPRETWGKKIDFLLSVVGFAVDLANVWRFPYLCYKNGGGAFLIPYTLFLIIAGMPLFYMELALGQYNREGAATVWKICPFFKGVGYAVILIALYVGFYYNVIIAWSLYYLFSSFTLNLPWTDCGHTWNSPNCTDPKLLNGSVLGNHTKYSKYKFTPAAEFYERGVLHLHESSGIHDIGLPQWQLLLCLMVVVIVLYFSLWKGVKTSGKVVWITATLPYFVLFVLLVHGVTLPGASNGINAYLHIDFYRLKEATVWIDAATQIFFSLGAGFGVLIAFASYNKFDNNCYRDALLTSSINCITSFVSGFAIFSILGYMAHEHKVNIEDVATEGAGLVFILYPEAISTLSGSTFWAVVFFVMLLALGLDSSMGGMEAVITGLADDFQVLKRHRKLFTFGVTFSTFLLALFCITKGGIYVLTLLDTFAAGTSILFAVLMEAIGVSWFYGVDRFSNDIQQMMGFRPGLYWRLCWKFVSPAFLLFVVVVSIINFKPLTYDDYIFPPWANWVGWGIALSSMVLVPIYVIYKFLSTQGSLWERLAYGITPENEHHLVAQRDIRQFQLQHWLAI

hNET [3] = molecular target: T2, hNET; test: hNET membrane radioligand binding assay (3H-nisoxetine), Assay 1
Procedure: (§1) Membrane radioligand binding assays were used to measure inhibition of labeled ligand (^3H-citalopram or ^3H-nisoxetine or ^3H-WIN35428) binding to membranes prepared from cells expressing the respective human recombinant transporter (hSERT or hNET or hDAT) in order to determine the pKi values of test compounds at the transporters.
(§2) Recombinant human embryonic kidney (HEK-293) derived cell lines stably transfected with hSERT or hNET, respectively, were grown in DMEM medium supplemented with 10% dialyzed FBS (for hSERT) or FBS (for hNET), 100 μg/mL penicillin, 100 μg/mL streptomycin, 2 mM L-glutamine and 250 μg/mL of the aminoglycoside antibiotic G418, in a 5% CO2 humidified incubator at 37° C. When cultures reached 80% confluence, the cells were washed thoroughly in PBS (without Ca^2+ and Mg^2+) and lifted with 5 mM EDTA in PBS. Cells were pelleted by centrifugation, resuspended in lysis buffer (10 mM Tris-HCl, pH7.5 containing 1 mM EDTA), homogenized, pelleted by centrifugation, then resuspended in 50 mM Tris-HCl, pH 7.5 and 10% sucrose at 4° C. Protein concentration of the membrane suspension was determined using a Bio-Rad Bradford Protein Assay kit. Membranes were snap frozen and stored at −80° C.
(§3) Binding assays were performed in a 96-well assay plate in a total volume of 200 μl assay buffer (50 mM Tris-HCl, 120 mM NaCl, 5 mM KCl, pH 7.4) with 0.5, 1, and 3 μg membrane protein, for SERT, NET and DAT, respectively.
(§4) Stock solutions (10 mM in DMSO) of test compound were prepared and serial dilutions made using Dilution Buffer (50 mM Tris-HCl, 120 mM NaCl, 5 mM KCl, pH 7.4, 0.1% BSA, 400 μM ascorbic acid).
(§5) Following a 60 minute incubation at 22° C. (or a period sufficient to reach equilibrium), the membranes were harvested by rapid filtration over a 96-well UniFilter GF/B plate, pretreated with 0.3% polyethyleneimine, and washed 6 times with 300 μl wash buffer (50 mM Tris-HCl, 0.9% NaCl, pH 7.5 at 4° C.). Plates were dried overnight at room temperature, approximately 45 μl of MicroScint™-20 (Perkin Elmer) added and bound radioactivity quantitated via liquid scintillation spectroscopy. Inhibition curves and saturation isotherms were analyzed using GraphPad Prism Software package (GraphPad Software, Inc., San Diego, Calif.). IC50 values were generated from concentration response curves using the Sigmoidal Dose Response (variable slope) algorithm in Prism GraphPad.

hSERT [4] = molecular target: T1, hSERT; test: hSERT membrane radioligand binding assay (3H-citalopram), Assay 1; settings: SERT pKi, hSERT HEK-293 membranes, 1.0 nM 3H-citalopram; values given as lower bounds
Procedure: as §1, §2, §3, §4, §5

Compound | IC50 (hSERT [1]) [nM] | IC50 (hNET [2]) [nM] | Ki (hNET [3]) [nM] | Ki (hSERT [4]) [nM]
CC(C)C[C@@H](Oc1cccc(Cl)c1Cl)[C@H]1CCNC1 [Example 10-23, (S)-3-[(R)-1-(2,3-Dichlorophenoxy)-3-methylbutyl]pyrrolidine] | ≤ 10 | ≤ 10 | ≤ 10 | ≤ 10
CC(C)C[C@H](Oc1cccc(F)c1Cl)[C@H]1CCNC1 [Example 10-25, (S)-3-[(S)-1-(2-Chloro-3-fluorophenoxy)-3-methylbutyl]pyrrolidine] | ≤ 10 | ≤ 10 | ≤ 10 | ≤ 10
CC(C)C[C@@H](Oc1cccc(F)c1Cl)[C@H]1CCNC1 [Example 10-27, (S)-3-[(R)-1-(2-Chloro-3-fluorophenoxy)-3-methylbutyl]pyrrolidine] | ≤ 10 | ≤ 10 | ≤ 10 | ≤ 10
CC(C)CC(Oc1cccc(C(F)(F)F)c1Cl)C1CCNC1 (stereo not shown) [Example 10-29, 3-[1-(2-Chloro-3-trifluoromethylphenoxy)-3-methylbutyl]pyrrolidine] | ≤ 10 | ≤ 10 | ≤ 10 | ≤ 10
CC(C)C[C@H](Oc1cccc(C(F)(F)F)c1Cl)[C@H]1CCNC1 [Example 10-30, (S)-3-[(S)-1-(2-Chloro-3-trifluoromethylphenoxy)-3-methylbutyl]pyrrolidine] | ≤ 10 | ≤ 10 | ≤ 10 | ≤ 10
Cc1c(Cl)cccc1O[C@H](CC(C)C)[C@H]1CCNC1 [Example 10-31, (S)-3-[(R)-1-(3-Chloro-2-methylphenoxy)-3-methylbutyl]pyrrolidine] | ≤ 10 | ≤ 10 | ≤ 10 | ≤ 10
CC(C)CC(Oc1cccc(Cl)c1C(F)(F)F)C1CCNC1 (stereo not shown) [Example 10-35, 3-[1-(3-Chloro-2-trifluoromethylphenoxy)-3-methylbutyl]pyrrolidine] | ≤ 10 | ≤ 10 | ≤ 10 | ≤ 10
CC(C)C[C@H](Oc1cccc(Cl)c1C(F)(F)F)[C@H]1CCNC1 [Example 10-36, (S)-3-[(S)-1-(3-Chloro-2-trifluoromethylphenoxy)-3-methylbutyl]pyrrolidine] | ≤ 10 | ≤ 10 | ≤ 10 | ≤ 10
CC(C)CC(Oc1ccc(Cl)cc1F)C1CCNC1 (stereo not shown) [Example 10-39, 3-[1-(4-Chloro-2-fluorophenoxy)-3-methylbutyl]pyrrolidine] | ≤ 10 | ≤ 10 | ≤ 10 | ≤ 10
CC(C)C[C@H](Oc1ccc(Cl)cc1F)[C@H]1CCNC1 [Example 10-41, (S)-3-[(S)-1-(4-Chloro-2-fluorophenoxy)-3-methylbutyl]pyrrolidine] | ≤ 10 | ≤ 10 | ≤ 10 | ≤ 10
CC(C)C[C@H](Oc1ccc(Cl)cc1Cl)[C@H]1CCNC1 [Example 10-42, (S)-3-[(S)-1-(2,4-Dichlorophenoxy)-3-methylbutyl]pyrrolidine] | ≤ 10 | ≤ 10 | ≤ 10 | ≤ 10
CC(C)C[C@@H](Oc1ccc(Cl)cc1Cl)[C@H]1CCNC1 [Example 10-44, (S)-3-[(R)-1-(2,4-Dichlorophenoxy)-3-methylbutyl]pyrrolidine] | ≤ 10 | ≤ 10 | ≤ 100 | ≤ 10
Cc1cc(Cl)ccc1O[C@H](CC(C)C)[C@H]1CCNC1 [Example 10-45, (S)-3-[(R)-1-(4-Chloro-2-methylphenoxy)-3-methylbutyl]pyrrolidine] | ≤ 10 | ≤ 10 | ≤ 10 | ≤ 10
Cc1cc(Cl)ccc1O[C@@H](CC(C)C)[C@H]1CCNC1 [Example 10-47, (S)-3-[(S)-1-(4-Chloro-2-methylphenoxy)-3-methylbutyl]pyrrolidine] | ≤ 10 | ≤ 10 | ≤ 10 | ≤ 10
CC(C)CC(Oc1ccc(Cl)cc1C(F)(F)F)C1CCNC1 (stereo not shown) [Example 10-48, 3-[1-(4-Chloro-2-trifluoromethylphenoxy)-3-methylbutyl]pyrrolidine] | ≤ 10 | ≤ 10 | ≤ 10 | ≤ 10
COc1cc(Cl)ccc1O[C@@H](CC(C)C)[C@H]1CCNC1 [Example 10-49, (S)-3-[(S)-1-(4-Chloro-2-methoxyphenoxy)-3-methylbutyl]pyrrolidine] | ≤ 10 | ≤ 10 | ≤ 10 | ≤ 10
COc1ccc(F)cc1O[C@@H](CC(C)C)[C@H]1CCNC1 [Example 10-50, (S)-3-[(S)-1-(5-Fluoro-2-methoxyphenoxy)-3-methylbutyl]pyrrolidine] | ≤ 100 | ≤ 10 | ≤ 10 | ≤ 10

Compound | IC50 (hSERT [1]) [nM] | IC50 (hNET [2]) [nM] | Ki (hNET [3]) [nM] | Ki (hSERT [4]) [nM]
CC(C)C[C@H](Oc1c(F)cccc1Cl)[C@H]1CCNC1 [Example 10-52, (S)-3-[(S)-1-(2-Chloro-6-fluorophenoxy)-3-methylbutyl]pyrrolidine] | ≤ 10 | ≤ 10 | ≤ 10 | ≤ 10
CC(C)CC(Oc1c(Cl)cccc1Cl)C1CCNC1 (stereo not shown) [Example 10-53, 3-[1-(2,6-Dichlorophenoxy)-3-methylbutyl]pyrrolidine] | ≤ 10 | ≤ 10 | ≤ 10 | ≤ 10
CC(C)C[C@H](Oc1c(Cl)cccc1Cl)[C@H]1CCNC1 [Example 10-54, (S)-3-[(S)-1-(2,6-Dichlorophenoxy)-3-methylbutyl]pyrrolidine] | ≤ 10 | ≤ 10 | ≤ 10 | ≤ 10
CC(C)C[C@H](Oc1cc(F)c(F)cc1F)[C@H]1CCNC1 [Example 10-57, (S)-3-[(S)-3-Methyl-1-(2,4,5-trifluorophenoxy)butyl]pyrrolidine] | ≤ 100 | ≤ 10 | ≤ 10 | ≤ 10
CC(C)CC(Oc1c(Cl)ccc(Cl)c1F)C1CCNC1 (stereo not shown) [Example 10-58, 3-[1-(3,6-Dichloro-2-fluorophenoxy)-3-methylbutyl]pyrrolidine] | ≤ 10 | ≤ 10 | ≤ 10 | ≤ 10
CC(C)CC(Oc1c(F)ccc(Cl)c1F)C1CCNC1 (stereo not shown) [Example 10-59, 3-[1-(3-Chloro-2,6-difluorophenoxy)-3-methylbutyl]pyrrolidine] | ≤ 10 | ≤ 10 | ≤ 10 | ≤ 10
CC(C)C[C@H](Oc1ccc(Cl)c(Cl)c1F)[C@H]1CCNC1 [Example 10-61, (S)-3-[(S)-1-(3,4-Dichloro-2-fluorophenoxy)-3-methylbutyl]pyrrolidine] | ≤ 10 | ≤ 10 | ≤ 10 | ≤ 10
CC(C)CC(Oc1c(F)ccc(F)c1Cl)C1CCNC1 (stereo not shown) [Example 10-62, 3-[1-(2-Chloro-3,6-difluorophenoxy)-3-methylbutyl]pyrrolidine] | ≤ 10 | ≤ 10 | ≤ 10 | ≤ 10
CC(C)CC(Oc1c(F)ccc(Cl)c1Cl)C1CCNC1 (stereo not shown) [Example 10-64, 3-[1(2,3-Dichloro-6-fluorophenoxy)-3-methylbutyl]pyrrolidine] | ≤ 10 | ≤ 10 | ≤ 10 | ≤ 10
CC(C)CC(Oc1c(F)cc(Cl)cc1F)C1CCNC1 (stereo not shown) [Example 10-66, 3-[1-(4-Chloro-2,6-difluorophenoxy)-3-methylbutyl]pyrrolidine] | ≤ 10 | ≤ 10 | ≤ 10 | ≤ 10
CC(C)C[C@H](Oc1ccc(Cl)c(F)c1F)[C@H]1CCNC1 [Example 10-68, (S)-3-[(S)-1-(4-Chloro-2,3-difluorophenoxy)-3-methylbutyl]pyrrolidine] | ≤ 10 | ≤ 10 | ≤ 10 | ≤ 10
CC(C)C[C@H](Oc1c(Cl)ccc(Cl)c1F)[C@H]1CCNC1 [Example 10-69, (S)-3-[(S)-1-(3,6-Dichloro-2-fluorophenoxy)-3-methylbutyl]pyrrolidine] | ≤ 10 | ≤ 10 | ≤ 10 | ≤ 10
CC(C)CC(Oc1ccc(Cl)c(F)c1)C1CCNC1 (stereo not shown) [Example 10-70, 3-[1-(4-Chloro-3-fluorophenoxy)-3-methylbutyl]pyrrolidine] | ≤ 10 | ≤ 10 | ≤ 10 | ≤ 10
CC(C)C[C@@H](Oc1ccc(Cl)c(Cl)c1)[C@H]1CCNC1 [Example 10-73, (S)-3-[(R)-1-(3,4-Dichlorophenoxy)-3-methylbutyl]pyrrolidine] | ≤ 10 | ≤ 10 | ≤ 10 | ≤ 10
CC(C)C[C@H](Oc1cc(Cl)cc(Cl)c1)[C@H]1CCNC1 [Example 10-77, (S)-3-[(S)-1-(3,5-Dichlorophenoxy)-3-methylbutyl]pyrrolidine] | ≤ 10 | ≤ 10 | ≤ 10 | ≤ 10
CC(C)CC(Oc1cc(Cl)cc(Cl)c1)C1CCNC1 (stereo not shown) [Example 10-78, 3-[1-(3,5-Dichlorophenoxy)-3-methylbutyl]pyrrolidine] | ≤ 10 | ≤ 10 | ≤ 10 | ≤ 10
CC(C)C[C@@H](Oc1cc(Cl)cc(Cl)c1)[C@H]1CCNC1 [Example 10-79, (S)-3-[(R)-1-(3,5-Dichlorophenoxy)-3-methylbutyl]pyrrolidine] | ≤ 10 | ≤ 10 | ≤ 10 | ≤ 10
